Source: paper PMC11111408, “Concurrent inhibition of oncogenic and wild-type RAS-GTP for cancer therapy” (Nature, 2024)

Test system: PRISM DNA-barcoded human tumour cell lines
Experiment: PRISM pooled cell viability assay;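 for PRISM AUC: 8 threefold dilutions from 10 µM with 5 days of exposure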
Type: cell-based
Parameters: AUC (PRISM viability) / AUC (PRISM): unit not given beside the values
Settings: for AUC (PRISM viability): WT; for PRISM AUC: KRAS MUT
Procedure: Cells were then lysed in TCL mRNA lysis buffer, and then PCR with reverse transcription was performed. Detection of the barcodes and univariate and multivariate analysis was then performed as previously described. Data analysis is described in the Supplementary Methods. Up-to-date code for our analysis is at the github link: https://github.com/cmap/dockerized_mts.
For every gene with non-silent mutations in at least four cell-lines, we compared the AUC values between cells with and without those mutations using a t-test. This analysis was carried out for: (i) the full dataset; (ii) excluding cell lines with non-silent KRAS mutations; and (iii) excluding cell lines that have either KRAS or NRAS non-silent mutations.

CCn1c(-c2cc(N3CCN(C4CC4)CC3)cnc2[C@H](C)OC)c2c3cc(ccc31)-c1csc(n1)C[C@H](NC(=O)[C@H]1[C@@H]3COC[C@@H]31)C(=O)N1CCC[C@H](N1)C(=O)OCC(C)(C)C2 [RMC-7977]
AUC (PRISM viability) (HUG1N_STOMACH): 0.8055 | AUC (PRISM viability) (HUH1_LIVER): 0.7529 | AUC (PRISM viability) (HUH6_LIVER): 0.7376 | AUC (PRISM viability) (HUH7_LIVER): 0.8557 | AUC (PRISM viability) (HUH28_BILIARY_TRACT): 0.8029 | PRISM AUC (HUPT3_PANCREAS): 0.1666 | PRISM AUC (HUPT4_PANCREAS): 0.2071 | PRISM AUC (IALM_LUNG): 0.3346 | AUC (PRISM viability) (IGR1_SKIN): 0.9019 | AUC (PRISM viability) (IGR37_SKIN): 0.7982 | AUC (PRISM viability) (IGR39_SKIN): 0.9854 | AUC (PRISM viability) (IGROV1_OVARY): 0.7964 | AUC (PRISM viability) (IM95_STOMACH): 0.4996 | AUC (PRISM viability) (IPC298_SKIN): 0.1645 | AUC (PRISM viability) (ISHIKAWAHERAKLIO02ER_ENDOMETRIUM): 0.7979 | AUC (PRISM viability) (ISTMES2_PLEURA): 1 | AUC (PRISM viability) (J82_URINARY_TRACT): 0.7456 | AUC (PRISM viability) (JEKO1_HAEMATOPOIETIC_AND_LYMPHOID_TISSUE): 0.8585 | AUC (PRISM viability) (JHH1_LIVER): 0.2992 | AUC (PRISM viability) (JHH4_LIVER): 0.7822 | AUC (PRISM viability) (JHH5_LIVER): 0.337 | AUC (PRISM viability) (JHH6_LIVER): 0.6328 | AUC (PRISM viability) (JHH7_LIVER): 0.6689 | AUC (PRISM viability) (JHOC5_OVARY): 0.6127 | AUC (PRISM viability) (JHOM1_OVARY): 0.7183 | AUC (PRISM viability) (JHOS2_OVARY): 0.6659 | AUC (PRISM viability) (JHUEM2_ENDOMETRIUM): 0.722 | AUC (PRISM viability) (JIMT1_BREAST): 0.6067 | AUC (PRISM viability) (JJN3_HAEMATOPOIETIC_AND_LYMPHOID_TISSUE): 0.5546 | AUC (PRISM viability) (JL1_PLEURA): 0.8348 | AUC (PRISM viability) (JM1_HAEMATOPOIETIC_AND_LYMPHOID_TISSUE): 0.8697 | AUC (PRISM viability) (JMSU1_URINARY_TRACT): 0.7968 | AUC (PRISM viability) (JURKAT_HAEMATOPOIETIC_AND_LYMPHOID_TISSUE): 1 | AUC (PRISM viability) (JURLMK1_HAEMATOPOIETIC_AND_LYMPHOID_TISSUE): 0.263 | AUC (PRISM viability) (JVM3_HAEMATOPOIETIC_AND_LYMPHOID_TISSUE): 0.6896 | AUC (PRISM viability) (K029AX_SKIN): 0.9507 | AUC (PRISM viability) (K562_HAEMATOPOIETIC_AND_LYMPHOID_TISSUE): 0.4372 | AUC (PRISM viability) (KALS1_CENTRAL_NERVOUS_SYSTEM): 0.7464 | AUC (PRISM viability) (KARPAS299_HAEMATOPOIETIC_AND_LYMPHOID_TISSUE): 0.6122 | PRISM AUC (KARPAS620_HAEMATOPOIETIC_AND_LYMPHOID_TISSUE): 0.3529 | AUC (PRISM viability) (KATOIII_STOMACH): 0.4955 | AUC (PRISM viability) (KCL22_HAEMATOPOIETIC_AND_LYMPHOID_TISSUE): 0.4527 | AUC (PRISM viability) (KE37_HAEMATOPOIETIC_AND_LYMPHOID_TISSUE): 0.4418 | AUC (PRISM viability) (KE39_STOMACH): 0.6732 | AUC (PRISM viability) (KELLY_AUTONOMIC_GANGLIA): 0.7861 | PRISM AUC (KHM1B_HAEMATOPOIETIC_AND_LYMPHOID_TISSUE): 0.496 | AUC (PRISM viability) (KLE_ENDOMETRIUM): 0.8932 | AUC (PRISM viability) (KMBC2_URINARY_TRACT): 0.2167 | AUC (PRISM viability) (KMH2_HAEMATOPOIETIC_AND_LYMPHOID_TISSUE): 0.7624 | AUC (PRISM viability) (KMRC1_KIDNEY): 1 | AUC (PRISM viability) (KMRC3_KIDNEY): 0.8631 | AUC (PRISM viability) (KMRC20_KIDNEY): 0.5322 | AUC (PRISM viability) (KMS11_HAEMATOPOIETIC_AND_LYMPHOID_TISSUE): 0.6264 | AUC (PRISM viability) (KMS18_HAEMATOPOIETIC_AND_LYMPHOID_TISSUE): 0.2086 | AUC (PRISM viability) (KMS27_HAEMATOPOIETIC_AND_LYMPHOID_TISSUE): 0.3359 | AUC (PRISM viability) (KMS34_HAEMATOPOIETIC_AND_LYMPHOID_TISSUE): 0.4857 | AUC (PRISM viability) (KNS42_CENTRAL_NERVOUS_SYSTEM): 0.8285 | AUC (PRISM viability) (KNS60_CENTRAL_NERVOUS_SYSTEM): 0.8415 | AUC (PRISM viability) (KNS62_LUNG): 0.4354 | AUC (PRISM viability) (KNS81_CENTRAL_NERVOUS_SYSTEM): 0.5354 | PRISM AUC (KOPN8_HAEMATOPOIETIC_AND_LYMPHOID_TISSUE): 0.2801 | PRISM AUC (KP2_PANCREAS): 0.2975 | PRISM AUC (KP3_PANCREAS): 0.3778 | PRISM AUC (KP4_PANCREAS): 0.4423 | AUC (PRISM viability) (KS1_CENTRAL_NERVOUS_SYSTEM): 0.4806 | AUC (PRISM viability) (KU1919_URINARY_TRACT): 0.2273 | AUC (PRISM viability) (KURAMOCHI_OVARY): 1 | AUC (PRISM viability) (KYM1_SOFT_TISSUE): 0.3526 | AUC (PRISM viability) (KYO1_HAEMATOPOIETIC_AND_LYMPHOID_TISSUE): 0.2345 | AUC (PRISM viability) (KYSE30_OESOPHAGUS): 0.402 | AUC (PRISM viability) (KYSE70_OESOPHAGUS): 0.7015 | AUC (PRISM viability) (KYSE140_OESOPHAGUS): 0.5343 | AUC (PRISM viability) (KYSE150_OESOPHAGUS): 0.4708 | AUC (PRISM viability) (KYSE180_OESOPHAGUS): 0.5999 | AUC (PRISM viability) (KYSE270_OESOPHAGUS): 0.564 | PRISM AUC (KYSE410_OESOPHAGUS): 0.2588 | AUC (PRISM viability) (KYSE450_OESOPHAGUS): 0.34 | AUC (PRISM viability) (KYSE510_OESOPHAGUS): 0.4594 | AUC (PRISM viability) (KYSE520_OESOPHAGUS): 0.4602 | PRISM AUC (L33_PANCREAS): 0.3993 | AUC (PRISM viability) (L363_HAEMATOPOIETIC_AND_LYMPHOID_TISSUE): 0.6953 | AUC (PRISM viability) (LAMA84_HAEMATOPOIETIC_AND_LYMPHOID_TISSUE): 0.3291 | AUC (PRISM viability) (LCLC103H_LUNG): 0.6805 | AUC (PRISM viability) (LI7_LIVER): 0.4821 | AUC (PRISM viability) (LK2_LUNG): 0.4878 | AUC (PRISM viability) (LMSU_STOMACH): 0.6242 | AUC (PRISM viability) (LN18_CENTRAL_NERVOUS_SYSTEM): 0.6382 | AUC (PRISM viability) (LN229_CENTRAL_NERVOUS_SYSTEM): 0.6899 | AUC (PRISM viability) (LN382_CENTRAL_NERVOUS_SYSTEM): 0.6351 | AUC (PRISM viability) (LNCAPCLONEFGC_PROSTATE): 0.7528 | AUC (PRISM viability) (LNZ308_CENTRAL_NERVOUS_SYSTEM): 0.4353 | AUC (PRISM viability) (LOUNH91_LUNG): 0.4098 | PRISM AUC (LOVO_LARGE_INTESTINE): 0.4131 | AUC (PRISM viability) (LOXIMVI_SKIN): 1 | PRISM AUC (LS180_LARGE_INTESTINE): 0.2098 | AUC (PRISM viability) (LS411N_LARGE_INTESTINE): 1 | PRISM AUC (LS513_LARGE_INTESTINE): 0.2181 | PRISM AUC (LU99_LUNG): 0.2453 | AUC (PRISM viability) (LUDLU1_LUNG): 0.5495 | AUC (PRISM viability) (LXF289_LUNG): 0.5423 | AUC (PRISM viability) (M059K_CENTRAL_NERVOUS_SYSTEM): 0.9015 | AUC (PRISM viability) (MALME3M_SKIN): 0.9889 | AUC (PRISM viability) (MC116_HAEMATOPOIETIC_AND_LYMPHOID_TISSUE): 0.9825 | PRISM AUC (MCAS_OVARY): 0.3593 | AUC (PRISM viability) (MCF7_BREAST): 0.8582 | AUC (PRISM viability) (MDAMB175VII_BREAST): 0.5383 | PRISM AUC (MDAMB231_BREAST): 0.478 | AUC (PRISM viability) (MDAMB361_BREAST): 0.7391 | AUC (PRISM viability) (MDAMB435S_SKIN): 0.9518 | AUC (PRISM viability) (MDAMB436_BREAST): 0.9067 | AUC (PRISM viability) (MDAMB453_BREAST): 0.3963 | AUC (PRISM viability) (MDAMB468_BREAST): 0.5525 | AUC (PRISM viability) (MDST8_LARGE_INTESTINE): 0.7229 | AUC (PRISM viability) (MELHO_SKIN): 0.9921 | AUC (PRISM viability) (MELJUSO_SKIN): 0.3578 | AUC (PRISM viability) (MESSA_SOFT_TISSUE): 0.9559 | AUC (PRISM viability) (MEWO_SKIN): 0.6173 | AUC (PRISM viability) (MFE280_ENDOMETRIUM): 0.5252 | AUC (PRISM viability) (MFE296_ENDOMETRIUM): 0.9033 | AUC (PRISM viability) (MFE319_ENDOMETRIUM): 0.8155 | AUC (PRISM viability) (MG63_BONE): 0.7861 | AUC (PRISM viability) (MHHES1_BONE): 0.8525 | AUC (PRISM viability) (MHHNB11_AUTONOMIC_GANGLIA): 0.4191 | PRISM AUC (MIAPACA2_PANCREAS): 0.1568 | AUC (PRISM viability) (MKN1_STOMACH): 0.5983 | AUC (PRISM viability) (MKN7_STOMACH): 0.4769 | AUC (PRISM viability) (MKN45_STOMACH): 0.1583 | AUC (PRISM viability) (MKN74_STOMACH): 0.7438 | AUC (PRISM viability) (MOLM13_HAEMATOPOIETIC_AND_LYMPHOID_TISSUE): 0.4032 | AUC (PRISM viability) (MOLP2_HAEMATOPOIETIC_AND_LYMPHOID_TISSUE): 0.65 | AUC (PRISM viability) (MOLT16_HAEMATOPOIETIC_AND_LYMPHOID_TISSUE): 0.6383 | AUC (PRISM viability) (MONOMAC1_HAEMATOPOIETIC_AND_LYMPHOID_TISSUE): 0.7673 | AUC (PRISM viability) (MONOMAC6_HAEMATOPOIETIC_AND_LYMPHOID_TISSUE): 0.6964
